Source: publication PMC6691788, “Design and synthesis of phthalazine-based compounds as potent anticancer agents with potential antiangiogenic activity via VEGFR-2 inhibition” (Journal of Enzyme Inhibition and Medicinal Chemistry, 2019)
pIC50: −log10 of the molar value. Where two headings read alike, the source gives them in different places.

Experiments:
[1] = tested on: VEGFR-2; settings: cited from earlier work
[2] = tested on: HCT-116; experiment: In vitro cytotoxic activity, SRB assay; format: cell-based; settings: Homo sapiens; HCT-116, 48h
Method: (§1) In addition, compounds (12a, 12b, 12c, 16b, 16c and 17b) were evaluated against a third cell line (HepG-2) These first two cell lines were selected based on the sensitivity of the previously NCI-tested derivatives towards them amongst the 60 NCI panel. The growth inhibition is expressed as the median growth inhibitory concentration (IC50) which corresponds to the concentration required for 50% inhibition of cell viability and are provided in (Table S6 in supplementary material).
(§2) 5,000 cells in fresh medium were seeded in 96-well microlitre plates and left to attach for 24h. Cells were incubated with the tested compounds at concentration range from 0,1,2.5,5,10 µg/ml and incubation was continued for48h. After 48h treatment,the cells were fixed with 50µl cold 50% trichloroacetic acid (TCA )for 1h at 4 °C. Wells were then washed 5 times with water and stained for 30 min at room temperature with 50µl of 0.4%SRB dissolved in 1% acetic acid. The wells were then washed 4 times with 1% acetic acid. The plates were air dried and the dye was solubilized with 100µl/well of 10mM tris base (pH 10.5) for 5min on a shaker (Orbital Shaker OS 20,Boeco,Germany) at 1600 rpm. The optical density (O.D.)of each well was measured spectrophotometrically at 564 nm with an enzyme linked immunosorbent assay( ELIZA) micraplate reader (Tecan Sunrise,Austria).The mean back ground absorbance was subtracted automatically and mean values for each drug concentration was calculated.
(§3) The percentage of cell survival was calculated as follows:
(§4) Survival fraction =O.D.(treated cells)/O.D.(control cells)
(§5) The IC50 value (the concentration required to produce 50% inhibition of cell growth) was calculated using sigmodial dose response curve-fitting models (GraphPad,Prizm software incorporated). Each concentration was repeated 3 times.

[3] = tested on: HepG-2; experiment: In vitro cytotoxic activity, SRB assay; format: cell-based; settings: Homo sapiens, HepG2; HepG-2, 48h
Method: as §1, §2, §3, §4, §5

[4] = tested on: MCF-7; experiment: In vitro cytotoxic activity, SRB assay; format: cell-based; settings: Homo sapiens, MCF7; MCF-7, 48h
Method: as §1, §2, §3, §4, §5

[5] = tested on: HUVEC; experiment: In vitro HUVEC anti-proliferative assay (alamarBlue); format: cell-based, human; settings: HUVEC proliferation, single dose 10 µM, 72 hours; for inhibition at 10 µM: Homo sapiens, read-out: % Cell inhibition
Method: The assay was performed at single dose concentration of 10 µM, where HUVEC umbilical vein endothelial cells, human (Life Technologies # C-003-5C) served as the cells’ source, in Medium 200 (Life Technologies # M-200-500), with large vessel endothelial supplement (LVES) (Life Technologies # A14608-01) and Pen-step (Hyclone # SV30010). AlamarBlue (Life Technologies # DAL1025) was used as the fluorescent reagent.
HUVEC cells were cultured in Medium 200 with 2% LVES and 1% Pen-strep. To perform the proliferation assay, HUVEC cells were seeded at 5000 cells/ 50µl /well in a 96-well black clear-bottom tissue culture plate. Cells were incubated at 37°C and 5% CO2 overnight to allow them to recover and reattach.
Next day cells were treated with test compounds for 72 hours. After treatment, cell proliferation was measured by Fluorescent quantitation of alamarBlue reagent. The alamarBlue assay incorporates a fluorometric/colorimetric growth indicator based on detection of metabolic activity. Specifically, resazurin, the active ingredient in the alamarBlue reagent, is blue in color and virtually non-fluorescent. Upon entering cells, resazurin is reduced to resorufin, a compound that is red in color and highly fluorescent. Continued cell growth maintains a reduced environment, therefore increasing the overall fluorescence and color of the media surrounding cells. […] To perform the alamarBlue assay, 10 µl of alamarBlue reagent was added to each well and the plate was incubated at 37°C for an additional 2 hours. Fluorescence intensity was measured at an excitation of 530 nm and an emission of 590 nm using a BioTek Synergy^TM 2 microplate reader.
Cell proliferation assays were performed in triplicate at each concentration. The fluorescent intensity data were analyzed using the computer software, Graphpad Prism. In the absence of the compound, the fluorescent intensity (Ft) in each data set was defined as 100%. In the absence of cells, the fluorescent intensity (Fb) in each data set was defined as 0%. The percent cell in the presence of each compound was calculated according to the following equation: %cell = (F-Fb)/(Ft-Fb), where F= the fluorescent intensity in the presence of the compound, Fb= the fluorescent intensity in the absence of cells, and Ft = the fluorescent intensity in the absence of the compound.

[6] = biological target: T1, VEGFR-2 tyrosine kinase (Homo sapiens, UniProt P35968); experiment: In vitro VEGFR-2 tyrosine kinase assay (BPS Bioscience); format: biochemical; settings: for pIC50: 10 μM ATP/0.2 mg/ml poly-Glu-Tyr; for inhibition at 10 µM: read-out: VEGFR-2 % inhibition, 10 μM concentration
T1 construct: purchased BPS Bioscience 40301
T1 sequence (P35968 20-1356): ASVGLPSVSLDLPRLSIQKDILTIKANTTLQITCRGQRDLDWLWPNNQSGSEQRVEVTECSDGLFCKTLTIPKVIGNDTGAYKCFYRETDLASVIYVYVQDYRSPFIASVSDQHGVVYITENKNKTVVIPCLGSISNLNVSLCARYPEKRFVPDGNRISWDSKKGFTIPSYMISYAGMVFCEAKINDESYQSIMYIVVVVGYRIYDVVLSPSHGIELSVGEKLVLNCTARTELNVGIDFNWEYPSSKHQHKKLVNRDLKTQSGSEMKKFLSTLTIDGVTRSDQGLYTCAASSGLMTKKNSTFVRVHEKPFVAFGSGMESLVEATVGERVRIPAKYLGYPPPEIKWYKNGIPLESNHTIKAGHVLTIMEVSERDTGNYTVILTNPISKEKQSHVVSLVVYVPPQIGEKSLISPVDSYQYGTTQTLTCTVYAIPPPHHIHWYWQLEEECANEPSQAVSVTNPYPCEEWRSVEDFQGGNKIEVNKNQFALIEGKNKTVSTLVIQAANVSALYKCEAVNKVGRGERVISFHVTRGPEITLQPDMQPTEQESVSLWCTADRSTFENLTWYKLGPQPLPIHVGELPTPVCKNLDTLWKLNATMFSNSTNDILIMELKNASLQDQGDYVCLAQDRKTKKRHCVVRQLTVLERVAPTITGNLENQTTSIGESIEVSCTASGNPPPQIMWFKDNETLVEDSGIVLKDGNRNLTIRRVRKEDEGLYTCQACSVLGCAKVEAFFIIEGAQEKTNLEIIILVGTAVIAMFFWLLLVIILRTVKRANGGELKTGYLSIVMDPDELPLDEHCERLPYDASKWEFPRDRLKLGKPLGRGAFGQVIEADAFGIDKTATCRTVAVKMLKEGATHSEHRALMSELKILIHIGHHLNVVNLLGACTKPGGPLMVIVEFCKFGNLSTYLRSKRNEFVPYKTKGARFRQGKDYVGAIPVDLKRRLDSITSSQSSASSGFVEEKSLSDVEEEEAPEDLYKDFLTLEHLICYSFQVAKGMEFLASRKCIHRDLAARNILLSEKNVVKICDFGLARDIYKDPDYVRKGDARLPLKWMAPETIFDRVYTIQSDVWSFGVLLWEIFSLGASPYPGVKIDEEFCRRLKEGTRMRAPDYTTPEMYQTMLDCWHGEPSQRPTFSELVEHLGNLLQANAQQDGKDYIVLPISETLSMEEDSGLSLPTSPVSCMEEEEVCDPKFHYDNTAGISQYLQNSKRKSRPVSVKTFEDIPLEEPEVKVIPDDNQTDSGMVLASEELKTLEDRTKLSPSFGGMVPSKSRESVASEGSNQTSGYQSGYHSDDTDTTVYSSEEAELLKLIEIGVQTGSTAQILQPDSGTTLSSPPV
Method: The VEGFR tyrosine kinase assays were performed at BPS Bioscience (www.bpsbioscience.com). All the synthesised compounds representing the six series were evaluated for their ability to inhibit VEGFR-2 tyrosine kinase at single dose of 10 µM.
The VEGFR tyrosine kinase activity at single dose concentration of 10 μM was carried out by BPS Bioscience (www.bpsbioscience.com). VEGFR (BPS#40301) served as the enzyme source and Poly (Glu, Tyr) sodium salt, (4:1, Glu:Tyr) (Sigma#P7244) served as the standardized substrate & Kinase-Glo Plus Luminescence kinase assay kit (Promega#V3772). The IC50 determination was carried out where quality control testing is routinely performed on each of the targets to insure compliance to acceptable standards. ^33P-ATP was purchased from Perkin Elmer and ADP-Glo^TM was purchased from Promega. All other materials were of standard laboratory grade.
The VEGFR tyrosine kinase activity was performed using Kinase-Glo Plus luminescence kinase assay kit (Promega). It measures kinase activity by quantitating the amount of ATP remaining in solution following a kinase reaction. The luminescent signal from the assay is correlated with the amount of ATP present and is inversely correlated with the amount of kinase activity. The compounds were diluted to 100 μM in 10% DMSO and […] of the dilution was added to a […] reaction so that the final concentration of DMSO is 1% in all of reactions. All of the enzymatic reactions were conducted at 30 °C for 40 min. The 50 μl reaction mixture contains […], pH 7.4, […], 0.1 mg/ml BSA, 0.2 mg/ml Poly (Glu, Tyr) substrate, 10 μM ATP and VEGFR. After the enzymatic reaction, […] of Kinase-GloPlus Luminescence kinase assay solution (Promega) was added to each reaction and incubate the plate for 5 min at room temperature. Luminescence signal was measured using a BioTek Synergy 2 microplate reader. The protein kinase assays used to determine IC50 value were performed using ADP-GloTM assay kit from Promega which measures the generation of ADP by the protein kinase. Generation of ADP by the protein kinase reaction leads to an increase in luminescence signal in the presence of ADP-GloTM assay kit. The assay was started by incubating the reaction mixture in a 96-well plate at 30 °C for 30 min. After the 30 min incubation period, the assay was terminated by the addition of […] of ADP-GloTM Reagent (Promega). The 96 well plate was shaken and then incubated for 40 min at ambient temperature. […] of Kinase detection reagent was added, the 96-well reaction plate was then read using the ADP-Glo Luminescences Protocol on a GloMax plate reader (Promega: Catalog #E7031). Blank control was set up that included all the assay components except the addition of appropriate substrate (replace with equal volume of kinase assay buffer). The corrected activity for each protein kinase target was determined by removing the blank control value.
VEGFR activity assays were performed in duplicate at each concentration. The luminescence data were analyzed using the computer software, Graphpad Prism. The difference between luminescence intensities in the absence of VEGFR (Lut) and in the presence of VEGFR (Luc) was defined as 100% activity (Lut - Luc). […] IC50 determination for inhibitor against VEGFR was estimated by generating a graph of log inhibitor vs normalized response with variable using the Prism software.

[7] = tested on: VEGFR-3; set-up: method as in PMID 24565910; settings: cited from earlier work

Row | SMILES | pIC50 ([1]; Figure 1, known VEGFR-2 kinase inhibitors, read-out: IC50) | melting point | pIC50 [2] | pIC50 [3] | pIC50 [4] | % Cell growth [5] | inhibition at 10 µM [5] | pIC50 [6] | inhibition at 10 µM [6] | pIC50 ([1]; read-out: IC50 VEGFR-2) | pIC50 [7]
1 | c1ccc(Cc2cnc(N3CCN(c4ncnc5ccccc45)CC3)nc2)cc1 [(VI)] | 8.47 | – | – | – | – | – | – | – | – | – | –
2 | O=C(Nc1ccc(Cl)cc1)Nc1ccc(Nc2nnc(Cl)c3ccccc23)cc1 [Compound 12b, 1–(4-Chlorophenyl)-3–(4-(4-chlorophthalazin-1-ylamino)phenyl)urea] | – | 236 to 238 °C | 3.76 | 3.76 | 3.81 | 20.17% | 79.8% | 5.36 | 70% | – | –
3 | O=C(Nc1ccc(Nc2nnc(Cl)c3ccccc23)cc1)Nc1ccc(Cl)c(C(F)(F)F)c1 [Compound 12c, 1–(4-Chloro-3-(trifluoromethyl)phenyl)-3–(4-(4-chlorophthalazin-1-ylamino)phenyl)-urea] | – | 187 to 189 °C | 3.14 | < 3.00 | < 3.00 | 27.42% | 72.6% | 5.57 | 78% | – | –
4 | CNC(=O)c1cc(COc2nnc(Nc3ccc(Cl)cc3)c3ccoc23)ccn1 [Telatinib (V), telatinib] | – | – | – | – | – | – | – | – | – | 8.22 | 8.40
